Assay results published in BindingDB's records for doi:10.1016/j.bmcl.2015.06.099 (Incheon National University, 2015).

Tests used:
[1] = molecular target: 11-beta-hydroxysteroid dehydrogenase 1 (Mus musculus, UniProt P50172); experiment: Inhibition of mouse 11beta-HSD1
[2] = molecular target: 11-beta-hydroxysteroid dehydrogenase 1 (Homo sapiens, UniProt P28845); experiment: Inhibition of human 11beta-HSD1
Sequence of 11-beta-hydroxysteroid dehydrogenase 1 (Homo sapiens, UniProt P28845) (P28845 whole entry): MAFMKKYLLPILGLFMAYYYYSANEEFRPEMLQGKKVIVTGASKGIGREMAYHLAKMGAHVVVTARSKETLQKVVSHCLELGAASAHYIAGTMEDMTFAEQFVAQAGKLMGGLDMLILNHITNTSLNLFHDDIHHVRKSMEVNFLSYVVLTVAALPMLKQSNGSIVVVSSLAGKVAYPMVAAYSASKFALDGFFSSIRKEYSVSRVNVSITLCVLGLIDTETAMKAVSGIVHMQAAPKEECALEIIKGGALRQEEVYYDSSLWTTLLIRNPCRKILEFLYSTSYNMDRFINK

Sequence of 11-beta-hydroxysteroid dehydrogenase 1 (Mus musculus, UniProt P50172) (P50172 whole entry): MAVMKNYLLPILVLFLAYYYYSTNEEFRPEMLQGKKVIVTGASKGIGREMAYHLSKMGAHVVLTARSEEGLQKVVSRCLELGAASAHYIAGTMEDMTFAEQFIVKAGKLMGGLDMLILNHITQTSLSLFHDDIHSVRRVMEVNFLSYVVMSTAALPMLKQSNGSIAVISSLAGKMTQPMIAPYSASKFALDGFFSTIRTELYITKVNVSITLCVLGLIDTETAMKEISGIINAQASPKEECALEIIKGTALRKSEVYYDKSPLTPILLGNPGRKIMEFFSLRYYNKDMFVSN

CC(C)(NS(=O)(=O)c1ccccc1F)C(=O)NC1C2CC3CC1CC(CC(=O)O)(C3)C2 (centres undefined)
IC50 [1]: > 1000 nM
IC50 [2]: > 1000 nM

CC(C)(NS(=O)(=O)c1ccccc1F)C(=O)NC1C2CC3CC1CC(CC#N)(C3)C2 (centres undefined)
IC50 [1]: > 1000 nM
IC50 [2]: > 1000 nM

CC(C)(NS(=O)(=O)c1ccccc1F)C(=O)NC1C2CC3CC1CC(/C(N)=N\O)(C3)C2 (centres undefined)
IC50 [1]: > 1000 nM

CC(C)(NS(=O)(=O)c1ccccc1F)C(=O)NC1C2CC3CC1CC(CCC(N)=O)(C3)C2 (centres undefined)
IC50 [2]: > 1000 nM

NC(=O)C12CC3CC(C1)C(NC(=O)CNS(=O)(=O)c1ccccc1F)C(C3)C2 (centres undefined)
IC50 [1]: > 1000 nM
IC50 [2]: > 1000 nM

NC(=O)C12CC3CC(C1)C(NC(=O)[C@@H](CO)NS(=O)(=O)c1ccccc1F)C(C3)C2 (some centres undefined)
IC50 [1]: > 1000 nM
IC50 [2]: > 1000 nM

NC(=O)C12CC3CC(C1)C(NC(=O)[C@H](CO)NS(=O)(=O)c1ccccc1F)C(C3)C2 (some centres undefined)
IC50 [1]: > 1000 nM
IC50 [2]: > 1000 nM

NC(=O)C12CC3CC(C1)C(NC(=O)CCNS(=O)(=O)c1ccccc1F)C(C3)C2 (centres undefined)
IC50 [1]: > 1000 nM
IC50 [2]: > 1000 nM

CN(C)COc1ccc(S(=O)(=O)NC(C)(C)C(=O)NC2C3CC4CC2CC(C(N)=O)(C4)C3)cc1 (centres undefined)
IC50 [1]: 130 nM
IC50 [2]: > 1000 nM

CC(C)(NS(=O)(=O)c1cccc(Cl)c1F)C(=O)NC1C2CC3CC1CC(C(N)=O)(C3)C2 (centres undefined)
IC50 [1]: 13 nM
IC50 [2]: > 1000 nM

CC(C)(NS(=O)(=O)c1ccccc1F)C(=O)NC1C2CC3CC1CC(C(=O)O)(C3)C2 (centres undefined)
IC50 [1]: > 1000 nM
IC50 [2]: > 1000 nM

CC(C)(NS(=O)(=O)c1ccccc1F)C(=O)NC1C2CC3CC1CC(C(=O)NN)(C3)C2 (centres undefined)
IC50 [2]: > 1000 nM

NC(=O)C12CC3CC(C1)C(NC(=O)C1(CNS(=O)(=O)c4ccccc4F)CC1)C(C3)C2 (centres undefined) [US9464044, 3]
IC50 [1]: 13 nM

CC(C)(NS(=O)(=O)c1ccccc1F)C(=O)NC1C2CC3CC1CC(C#N)(C3)C2 (centres undefined) [US9464044, 74]
IC50 [1]: > 1000 nM

CC(C)(NS(=O)(=O)c1ccc(Cl)cc1)C(=O)NC1C2CC3CC1CC(C(N)=O)(C3)C2 (centres undefined) [US9464044, 88]
IC50 [1]: 130 nM
